# Experimental data as given in patent US20080269155A1, “REMEDY OR PREVENTIVE FOR KIDNEY DISEASE AND METHOD OF DIAGNOSING KIDNEY DISEASE” (TORAY INDUSTRIES INC., priority 2002, published 2008).
# Legend:
# nephritis rat models = assay: Nephritis rat model induced by anti-glomerular basement membrane antibody: kidney function markers and kidney pathology; format: in vivo; conditions: for urine protein: 24-hour urine on 7th day from induction
# [1] = test system: casein kinase 2 α subunit; assay: Western blot of casein kinase 2 α subunit protein in kidney tissue of nephritis rats given oligonucleotides; format: in vivo, rat; conditions: 12 μg/day into kidney tissue by Alzet pump from one day before induction to 7th day
# Method: This example was carried out for studying the effect of administration of an antisense oligonucleotide against casein kinase 2 α subunit, so as to confirm the utility of the present invention. To rats (Wistar-Kyoto strain, male, body weight 190 to 210 g), rabbit anti-glomerular basement membrane antibody was intravenously administered (0.3 ml/kg) to induce nephritis. […] The nucleic acid molecules of the oligonucleotides were S-oligonucleotides containing phosphorothioate moieties, and a cationic liquid (Polyplus transfection) was used for making the uptake of the oligonucleotide easier. More particularly, the groups used in the experiment were normal group (normal rats to which the antisense oligonucleotide against casein kinase 2 α subunit and the antisense oligonucleotide were not administered, n=8), nephritis control group (nephritis rats to which the antisense oligonucleotide against casein kinase 2 α subunit and the antisense oligonucleotide were not administered, n=8), nephritis+antisense oligonucleotide against casein kinase 2 α subunit-administered group (group of the present invention, nephritis rats to which the antisense oligonucleotide against casein kinase 2 α subunit was administered, n=4), and nephritis+sense oligonucleotide of casein kinase 2 α subunit-administered group (negative control group, nephritis rats to which the sense oligonucleotide of casein kinase 2 α subunit was administered), totally four groups. On the 7th day from the induction, all rats were placed in metabolic cages, and urine excreted during 24 hours was collected and the amount of the urine was measured. The urine was then centrifuged at 3000 rpm for 15 minutes, and the urine protein in the supernatant was measured. Further, after the collection of urine, the kidneys were isolated, proteins were extracted from each kidney tissue by a conventional method, and the proteins (1 mg/ml, 20 μl) were electrophoresed (PAGERUN, ATTO, 40 mA, 84 min) on 12.5% polyacrylamide gel (PAGEL, ATTO). The electrophoresed proteins were blotted (100V, 90 min) on a PVDF membrane (Millipore). The membrane was blocked (Blocking Ace, Dainippon Pharmaceutical, 4° C., 1 hour), and washed three times (10 min) with PBS containing Tween 20. Then the membrane was incubated (at room temperature for 1 hour) with an anti-casein kinase 2 α subunit (originated from goat, Santa cruz, 100-fold diluted) as the primary antibody. […] After the incubation, the amounts of the casein kinase 2 α subunit protein were measured, respectively, using ECL reagent (Amersham). This measurement was carried out by taking photographs of the detected casein kinase 2 so as to make image files of the amount of the casein kinase 2 protein, and digitalizating the image file using a software NIH Image on Macintosh.
# [2] = oligonucleotide 12 μg/day into kidney tissue, FIG. 2
molecule,measurement,setting,value
O=c1cc(-c2ccc(O)cc2)oc2cc(O)cc(O)c12 [apigenin],urine protein,"nephritis rat models; apigenin 20 mg/l kg body weight intraperitoneally once a day, FIG. 4",significantly decreased
5′-GTAATCATCTTGATTACCCCA-3′ (chemistry not given here),Protein Amount Ratio of Casein Kinase 2 α Subunit,[1]; no-oligonucleotide kidney = 1,prominently decreased
same,Protein Amount Ratio of Casein Kinase 2 α Subunit,"[1]; no-oligonucleotide kidney = 1, listed as Antisense Oligonucleotide",0.45
same,urine protein,nephritis rat models; [2],significantly decreased
"Cc1cc(O)c2c(c1)C(=O)c1cc(O)cc(O)c1C2=O [3-methyl-1,6,8-trihydroxyanthraquinone]",blood creatinine level,"nephritis rat models; 20 mg/l kg body weight intraperitoneally once a day, 14th day from induction, FIG. 6",almost normalized
same,urine protein,"nephritis rat models; 20 mg/l kg body weight intraperitoneally once a day, FIG. 5",significantly decreased
same,pathological finding of the kidney tissue,"nephritis rat models; 20 mg/l kg body weight intraperitoneally once a day, hematoxylin-eosin-stained specimens",improvements in the glomeruli and in the renal tubule interstitium were observed
5′-TGGGGTATCAATCAAGATGATTAC-3′ (chemistry not given here) [negative control],Protein Amount Ratio of Casein Kinase 2 α Subunit,[1]; no-oligonucleotide kidney = 1,did not decrease
same,Protein Amount Ratio of Casein Kinase 2 α Subunit,"[1]; no-oligonucleotide kidney = 1, listed as Sense Oligonucleotide",1.07
same,urine protein,nephritis rat models; [2],did not significantly decrease
